Publication PMC5414976, “Reduction of reactive red 241 by oxygen insensitive azoreductase purified from a novel strain Staphylococcus KU898286” (PLoS ONE, 2017)

System: T1, azoreductase
T1 construct: native enzyme purified from strain S1 cells (sonication, ammonium sulphate, Sephadex G-100); 29 kDa by SDS-PAGE
Test: dye decolourisation at […] nm, Lineweaver-Burk
Type: biochemical, Staphylococcus aureus

| SMILES | Km (constant NADH 1 mM (text; legend of Fig 4a says absence of NADH)) | Km (0.5 mM RR241, NADH varied) |
| --- | --- | --- |
| O=S(=O)(O)OCCS(=O)(=O)c1ccc(Nc2nc(Cl)nc(Nc3cc(S(=O)(=O)O)cc4cc(S(=O)(=O)O)c(N=Nc5ccc6c(S(=O)(=O)O)cccc6c5S(=O)(=O)O)c(O)c34)n2)cc1 [RR241, reactive red 241] | 1540 µM | – |
| NC(=O)C1=CN([C@@H]2O[C@H](COP(=O)(O)OP(=O)(O)OC[C@H]3O[C@@H](n4cnc5c(N)ncnc54)[C@H](O)[C@@H]3O)[C@@H](O)[C@H]2O)C=CC1 [NADH] | – | 1020 µM |
